Active and inactive are the calls of the source.
Legend:
[1] = biological target: Transitional endoplasmic reticulum ATPase (Homo sapiens, UniProt P55072, C522A); assay: C522A mutant p97 ATPase inhibitors, dose response, counter-screen for p97 inhibitor project, biochemical, luminescence (AID 1544)
[2] = biological target: Transitional endoplasmic reticulum ATPase (Homo sapiens, UniProt P55072); assay: p97 ATPase inhibitors, dose response, biochemical (AID 1534)
[3] = biological target: Cyclin-dependent kinase 5/CDK5 activator 1 (Homo sapiens, UniProt Q00535); assay: CDK5/p35 kinase inhibitors, dose response, biochemical, cherry-picked samples, set 2 (AID 504545)
Sequence of Cyclin-dependent kinase 5/CDK5 activator 1 (Q00535 whole entry, the tested form may be a part): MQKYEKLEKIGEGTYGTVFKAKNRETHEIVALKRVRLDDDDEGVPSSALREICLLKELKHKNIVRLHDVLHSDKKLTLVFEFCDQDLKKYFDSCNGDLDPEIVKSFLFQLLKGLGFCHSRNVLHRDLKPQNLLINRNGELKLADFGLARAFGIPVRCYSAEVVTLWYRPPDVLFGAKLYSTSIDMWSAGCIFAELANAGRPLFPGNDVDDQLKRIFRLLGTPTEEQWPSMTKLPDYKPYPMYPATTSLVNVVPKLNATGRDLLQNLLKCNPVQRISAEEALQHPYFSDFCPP
Sequence of Cyclin-dependent kinase 5/CDK5 activator 1 (Q15078 whole entry, further chain, the tested form may be a part): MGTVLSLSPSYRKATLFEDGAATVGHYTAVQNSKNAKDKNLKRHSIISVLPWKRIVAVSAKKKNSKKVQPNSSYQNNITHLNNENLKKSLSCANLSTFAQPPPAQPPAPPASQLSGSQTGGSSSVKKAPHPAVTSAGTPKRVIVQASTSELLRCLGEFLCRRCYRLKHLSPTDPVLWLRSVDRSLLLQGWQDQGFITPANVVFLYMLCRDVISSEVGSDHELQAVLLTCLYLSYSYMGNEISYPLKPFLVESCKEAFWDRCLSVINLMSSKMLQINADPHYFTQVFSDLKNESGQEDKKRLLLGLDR

[4] = biological target: T1, RNA-binding protein pos-1 (Caenorhabditis elegans, UniProt G5EF15); assay: inhibitors of POS-1/mex-3 RNA binding, dose response, biochemical, fluorescence polarization (AID 1964);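 note: purified POS-1 fused to maltose binding protein made in E. coli; potency of compounds blocking POS-1 binding to fluorescent RNA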
T1 sequence (G5EF15 whole entry): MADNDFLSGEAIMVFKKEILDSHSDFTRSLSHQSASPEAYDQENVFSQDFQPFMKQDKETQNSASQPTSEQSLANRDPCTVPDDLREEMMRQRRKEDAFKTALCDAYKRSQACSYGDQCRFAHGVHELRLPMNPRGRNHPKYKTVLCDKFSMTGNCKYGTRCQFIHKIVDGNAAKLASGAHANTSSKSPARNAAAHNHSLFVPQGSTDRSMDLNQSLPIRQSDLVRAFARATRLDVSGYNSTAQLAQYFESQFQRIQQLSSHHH

[5] = biological target: T2, Aspartyl aminopeptidase (Plasmodium falciparum 3D7, UniProt Q8I2J3)
T2 sequence (Q8I2J3 whole entry): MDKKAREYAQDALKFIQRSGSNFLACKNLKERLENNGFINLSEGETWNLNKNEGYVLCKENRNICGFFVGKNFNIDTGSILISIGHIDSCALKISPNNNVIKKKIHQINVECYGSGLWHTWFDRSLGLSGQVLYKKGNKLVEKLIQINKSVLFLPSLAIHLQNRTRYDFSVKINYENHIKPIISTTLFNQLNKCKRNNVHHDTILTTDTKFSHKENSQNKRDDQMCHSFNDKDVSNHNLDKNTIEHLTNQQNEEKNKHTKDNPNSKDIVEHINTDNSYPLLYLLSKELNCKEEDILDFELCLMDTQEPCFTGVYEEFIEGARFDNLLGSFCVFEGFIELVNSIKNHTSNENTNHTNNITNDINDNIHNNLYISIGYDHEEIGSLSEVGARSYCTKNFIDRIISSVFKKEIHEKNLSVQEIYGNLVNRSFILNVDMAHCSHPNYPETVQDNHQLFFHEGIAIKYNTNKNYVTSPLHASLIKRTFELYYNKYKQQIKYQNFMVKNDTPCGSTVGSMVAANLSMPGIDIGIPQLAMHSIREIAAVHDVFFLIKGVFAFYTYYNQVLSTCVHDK

[6] = biological target: Procathepsin L (Homo sapiens, UniProt P07711)
Sequence of Procathepsin L (P07711 whole entry): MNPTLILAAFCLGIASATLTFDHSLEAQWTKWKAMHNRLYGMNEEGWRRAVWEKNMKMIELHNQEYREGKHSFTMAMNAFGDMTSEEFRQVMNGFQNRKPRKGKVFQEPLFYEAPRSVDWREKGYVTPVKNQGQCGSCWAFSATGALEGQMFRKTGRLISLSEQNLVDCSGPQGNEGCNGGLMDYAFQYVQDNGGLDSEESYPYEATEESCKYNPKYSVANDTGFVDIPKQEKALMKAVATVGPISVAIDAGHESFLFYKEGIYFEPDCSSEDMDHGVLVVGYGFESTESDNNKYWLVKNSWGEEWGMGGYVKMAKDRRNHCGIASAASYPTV

[7] = biological target: T3, Zinc finger protein mex-5 (Caenorhabditis elegans, UniProt Q9XUB2); assay: MEX-5/TCR-2 RNA interaction inhibitors, dose response, biochemical, C. elegans, fluorescence polarization (AID 1960)
T3 sequence (Q9XUB2 whole entry): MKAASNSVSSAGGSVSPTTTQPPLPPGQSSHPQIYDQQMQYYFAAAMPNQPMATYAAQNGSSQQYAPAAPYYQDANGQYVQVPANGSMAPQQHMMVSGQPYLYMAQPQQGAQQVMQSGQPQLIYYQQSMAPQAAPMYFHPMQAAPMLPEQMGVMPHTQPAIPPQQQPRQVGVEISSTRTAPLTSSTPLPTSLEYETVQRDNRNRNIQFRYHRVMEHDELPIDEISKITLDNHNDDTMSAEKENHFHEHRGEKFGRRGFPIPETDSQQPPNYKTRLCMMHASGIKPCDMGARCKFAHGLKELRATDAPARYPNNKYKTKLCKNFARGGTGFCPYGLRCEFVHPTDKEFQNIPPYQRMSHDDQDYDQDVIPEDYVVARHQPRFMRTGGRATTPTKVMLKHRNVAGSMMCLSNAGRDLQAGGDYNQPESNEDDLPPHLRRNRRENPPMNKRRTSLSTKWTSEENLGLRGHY

[8] = cytotoxicity in HPDE-C7 cells, cell-based, fluorescence, HTS (AID 430); format: functional; conditions: Homo sapiens
[9] = biological target: Large T antigen (Simian virus 40, UniProt P03070); format: functional, Betapolyomavirus macacae;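 note: Confirmatory-stage PubChem screen for compounds that inhibit SV40 T antigen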
Sequence of Large T antigen (P03070 whole entry): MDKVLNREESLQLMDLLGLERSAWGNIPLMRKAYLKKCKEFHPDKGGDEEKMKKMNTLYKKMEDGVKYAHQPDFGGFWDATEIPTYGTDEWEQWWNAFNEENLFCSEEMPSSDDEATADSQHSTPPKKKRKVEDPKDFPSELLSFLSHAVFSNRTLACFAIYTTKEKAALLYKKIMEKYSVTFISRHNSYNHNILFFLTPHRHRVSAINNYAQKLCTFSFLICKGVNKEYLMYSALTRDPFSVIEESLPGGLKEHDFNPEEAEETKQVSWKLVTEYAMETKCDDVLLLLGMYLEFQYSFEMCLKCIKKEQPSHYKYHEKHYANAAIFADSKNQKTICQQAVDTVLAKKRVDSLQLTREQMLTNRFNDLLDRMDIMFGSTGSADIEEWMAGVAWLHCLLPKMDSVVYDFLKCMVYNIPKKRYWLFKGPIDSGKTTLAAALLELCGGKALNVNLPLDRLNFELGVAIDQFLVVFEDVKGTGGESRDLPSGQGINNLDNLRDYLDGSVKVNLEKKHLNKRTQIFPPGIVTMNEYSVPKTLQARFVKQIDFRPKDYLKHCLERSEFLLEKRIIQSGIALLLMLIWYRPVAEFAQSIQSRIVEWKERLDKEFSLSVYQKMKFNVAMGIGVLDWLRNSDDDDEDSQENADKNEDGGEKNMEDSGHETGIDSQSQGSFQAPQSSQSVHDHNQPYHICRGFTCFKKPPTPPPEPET

[10] = cytotoxicity in KRAS-transformed pancreatic duct cells, primary screen, cell-based, fluorescence, HTS (AID 431); format: functional; conditions: Homo sapiens;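 note: cell line used: HPDE-C7K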
[11] = biological target: FAD-linked sulfhydryl oxidase ALR (Homo sapiens, UniProt P55789); assay: inhibitors of human ALR sulfhydryl oxidase, dose response, biochemical, H2O2 detection, luminescence, cherry-pick (AID 493248)
Sequence of FAD-linked sulfhydryl oxidase ALR (P55789 whole entry): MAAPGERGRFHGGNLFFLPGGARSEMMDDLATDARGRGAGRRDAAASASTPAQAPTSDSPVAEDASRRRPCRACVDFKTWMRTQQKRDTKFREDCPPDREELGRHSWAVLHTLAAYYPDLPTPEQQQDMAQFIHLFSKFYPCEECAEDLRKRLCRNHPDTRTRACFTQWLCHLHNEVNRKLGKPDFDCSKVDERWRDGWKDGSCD

[12] = THP-1 cell cytotoxicity, dose response, cytotoxicity control for Vif-APOBEC3G degradation inhibitor project, THP-1 cells (AID 1117359); format: functional; conditions: Human immunodeficiency virus 1, THP-1
[13] = biological target: T4, Tyrosine-protein phosphatase non-receptor type 7 (Homo sapiens, UniProt P35236); format: functional
T4 sequence (P35236 whole entry): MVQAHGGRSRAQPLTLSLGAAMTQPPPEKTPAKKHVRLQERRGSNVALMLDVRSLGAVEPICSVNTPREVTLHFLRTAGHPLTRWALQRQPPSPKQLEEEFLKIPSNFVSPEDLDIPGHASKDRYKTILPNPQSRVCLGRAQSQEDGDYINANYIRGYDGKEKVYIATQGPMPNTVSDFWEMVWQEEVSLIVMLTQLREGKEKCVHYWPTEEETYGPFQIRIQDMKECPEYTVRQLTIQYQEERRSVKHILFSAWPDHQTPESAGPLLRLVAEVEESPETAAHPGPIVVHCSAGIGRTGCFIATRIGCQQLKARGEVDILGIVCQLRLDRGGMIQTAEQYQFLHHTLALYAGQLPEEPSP

[14] = biological target: Glyceraldehyde-3-phosphate dehydrogenase (Homo sapiens, UniProt P04406)
[15] = biological target: Heat shock cognate 71 kDa protein (Homo sapiens, UniProt P11142); assay: In Vitro Hsc70 Dose Response Fluorescence Polarization Assay. [Related pubchem assays: 1072 ]
Sequence of Heat shock cognate 71 kDa protein (P11142 whole entry): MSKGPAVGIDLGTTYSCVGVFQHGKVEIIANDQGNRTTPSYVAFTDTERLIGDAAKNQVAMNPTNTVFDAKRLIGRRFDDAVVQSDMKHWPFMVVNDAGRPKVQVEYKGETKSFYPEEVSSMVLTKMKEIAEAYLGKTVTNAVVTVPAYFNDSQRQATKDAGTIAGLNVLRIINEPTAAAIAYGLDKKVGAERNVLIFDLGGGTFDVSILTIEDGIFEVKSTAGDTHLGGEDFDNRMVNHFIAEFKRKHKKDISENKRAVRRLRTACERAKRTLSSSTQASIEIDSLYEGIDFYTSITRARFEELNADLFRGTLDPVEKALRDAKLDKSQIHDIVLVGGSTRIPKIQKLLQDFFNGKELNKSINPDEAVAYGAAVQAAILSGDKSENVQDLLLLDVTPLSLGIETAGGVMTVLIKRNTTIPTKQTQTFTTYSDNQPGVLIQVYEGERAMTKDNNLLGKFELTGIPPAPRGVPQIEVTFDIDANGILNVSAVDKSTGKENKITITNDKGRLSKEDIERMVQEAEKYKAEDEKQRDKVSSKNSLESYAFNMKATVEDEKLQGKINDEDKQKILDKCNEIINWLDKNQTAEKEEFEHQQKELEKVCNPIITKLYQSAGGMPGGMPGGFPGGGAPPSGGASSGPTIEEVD

[16] = biological target: Heat shock 70 kDa protein 1A (Homo sapiens, UniProt P0DMV8); assay: Hsp70 inhibitors, SAR follow-up, biochemical, fluorescence polarization (AID 1072)
Sequence of Heat shock 70 kDa protein 1A (P0DMV8 whole entry): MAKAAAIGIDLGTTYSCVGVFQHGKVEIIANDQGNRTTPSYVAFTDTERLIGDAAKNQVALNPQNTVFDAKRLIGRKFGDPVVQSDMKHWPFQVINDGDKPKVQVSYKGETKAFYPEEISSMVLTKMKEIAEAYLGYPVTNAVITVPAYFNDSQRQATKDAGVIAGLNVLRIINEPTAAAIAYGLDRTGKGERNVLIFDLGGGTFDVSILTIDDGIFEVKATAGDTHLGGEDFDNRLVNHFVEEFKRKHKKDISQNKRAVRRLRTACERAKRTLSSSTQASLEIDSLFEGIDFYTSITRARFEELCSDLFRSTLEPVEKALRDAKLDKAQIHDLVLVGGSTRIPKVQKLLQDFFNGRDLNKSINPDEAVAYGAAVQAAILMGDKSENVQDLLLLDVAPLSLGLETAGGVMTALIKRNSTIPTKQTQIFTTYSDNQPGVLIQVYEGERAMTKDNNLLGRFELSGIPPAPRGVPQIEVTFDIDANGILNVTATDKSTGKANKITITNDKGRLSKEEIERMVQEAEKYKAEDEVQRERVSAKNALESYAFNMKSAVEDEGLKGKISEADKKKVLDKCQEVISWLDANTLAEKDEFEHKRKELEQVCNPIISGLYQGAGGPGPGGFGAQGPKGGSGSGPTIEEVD

[17] = biological target: T5, Dual specificity protein phosphatase 6 (Rattus norvegicus, UniProt Q64346)
T5 sequence (Q64346 whole entry): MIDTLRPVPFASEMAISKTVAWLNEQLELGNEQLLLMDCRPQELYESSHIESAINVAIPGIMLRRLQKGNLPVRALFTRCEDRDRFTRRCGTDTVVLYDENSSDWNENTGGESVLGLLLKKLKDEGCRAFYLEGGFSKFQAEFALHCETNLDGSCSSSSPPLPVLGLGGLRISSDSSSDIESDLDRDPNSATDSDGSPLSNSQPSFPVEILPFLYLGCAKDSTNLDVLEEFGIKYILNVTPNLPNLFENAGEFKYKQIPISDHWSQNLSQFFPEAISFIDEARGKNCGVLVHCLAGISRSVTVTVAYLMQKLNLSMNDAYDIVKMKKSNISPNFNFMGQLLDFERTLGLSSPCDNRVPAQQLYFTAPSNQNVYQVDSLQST

[18] = biological target: T5, Dual specificity protein phosphatase 6; format: functional
[19] = inhibitors of firefly luciferase expression or activity, dose response, H4 neuroglioma cells, luminescence (AID 1990); format: functional, cell-based
[20] = luciferase reporter signal reduction – luminescence, H4-C neuroglioblastoma cells, dose response (AID 2458); format: functional, cell-based;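 note: H4 neuroglioblastoma cells stably carrying a luciferase reporter gene fusion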
[21] = cells; format: functional, cell-based
[22] = inhibitors of SNCA 5'UTR-driven reporter translation, confirmation, H4 neuroglioma cells, luminescence (AID 1988); format: functional, cell-based
[23] = Luminescence-based dose response cell-based high throughput screening assay for cytotoxic compounds using the IEC-6 intestinal epithelial cell line. [Related pubchem assays: 1858 (Summary AID.), 1825 (Counterscreen.), 1907 (Confirmation screen.)]; format: functional
[24] = inhibitors of SNCA 5'UTR-driven translation, confirmation, luminescence, H4 neuroglioblastoma cells, dose confirmation (AID 2454); format: functional, cell-based;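 note: H4 neuroglioblastoma cells carrying an alpha-synuclein 5'UTR luciferase reporter; potency for inhibition of the luciferase signal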
[25] = cytotoxicity in HEK-293T cells, dose response, cytotoxicity control for TCR NF-kB inhibitor project, luminescence, T-cell screen hits (AID 489026); format: functional, cell-based;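 note: cells exposed to compound about 14 hours before the viability readout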

Sequence of Transitional endoplasmic reticulum ATPase (Homo sapiens, UniProt P55072, C522A) (P55072 2-806 C522A limits assumed): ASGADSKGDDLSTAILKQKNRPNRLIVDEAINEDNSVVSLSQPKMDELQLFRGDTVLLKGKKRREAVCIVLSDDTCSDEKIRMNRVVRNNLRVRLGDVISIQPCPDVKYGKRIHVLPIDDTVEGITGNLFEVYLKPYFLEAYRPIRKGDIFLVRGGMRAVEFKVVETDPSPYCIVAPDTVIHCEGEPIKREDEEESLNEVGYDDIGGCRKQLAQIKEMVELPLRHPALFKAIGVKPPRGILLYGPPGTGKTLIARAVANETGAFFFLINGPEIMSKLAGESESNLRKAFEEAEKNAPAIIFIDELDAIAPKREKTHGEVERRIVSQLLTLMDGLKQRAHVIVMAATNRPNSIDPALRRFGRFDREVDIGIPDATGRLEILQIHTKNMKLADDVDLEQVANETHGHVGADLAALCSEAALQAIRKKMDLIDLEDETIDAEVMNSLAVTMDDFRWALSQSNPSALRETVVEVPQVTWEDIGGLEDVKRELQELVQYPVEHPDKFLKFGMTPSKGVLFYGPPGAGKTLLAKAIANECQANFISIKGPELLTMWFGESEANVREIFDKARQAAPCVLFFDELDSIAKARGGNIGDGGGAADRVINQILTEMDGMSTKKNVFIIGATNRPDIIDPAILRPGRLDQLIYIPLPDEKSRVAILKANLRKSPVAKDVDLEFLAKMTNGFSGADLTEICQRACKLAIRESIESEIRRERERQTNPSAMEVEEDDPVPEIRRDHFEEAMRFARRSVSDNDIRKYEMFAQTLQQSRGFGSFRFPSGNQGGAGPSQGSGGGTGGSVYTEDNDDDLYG
Sequence of Transitional endoplasmic reticulum ATPase (Homo sapiens, UniProt P55072) (P55072 whole entry): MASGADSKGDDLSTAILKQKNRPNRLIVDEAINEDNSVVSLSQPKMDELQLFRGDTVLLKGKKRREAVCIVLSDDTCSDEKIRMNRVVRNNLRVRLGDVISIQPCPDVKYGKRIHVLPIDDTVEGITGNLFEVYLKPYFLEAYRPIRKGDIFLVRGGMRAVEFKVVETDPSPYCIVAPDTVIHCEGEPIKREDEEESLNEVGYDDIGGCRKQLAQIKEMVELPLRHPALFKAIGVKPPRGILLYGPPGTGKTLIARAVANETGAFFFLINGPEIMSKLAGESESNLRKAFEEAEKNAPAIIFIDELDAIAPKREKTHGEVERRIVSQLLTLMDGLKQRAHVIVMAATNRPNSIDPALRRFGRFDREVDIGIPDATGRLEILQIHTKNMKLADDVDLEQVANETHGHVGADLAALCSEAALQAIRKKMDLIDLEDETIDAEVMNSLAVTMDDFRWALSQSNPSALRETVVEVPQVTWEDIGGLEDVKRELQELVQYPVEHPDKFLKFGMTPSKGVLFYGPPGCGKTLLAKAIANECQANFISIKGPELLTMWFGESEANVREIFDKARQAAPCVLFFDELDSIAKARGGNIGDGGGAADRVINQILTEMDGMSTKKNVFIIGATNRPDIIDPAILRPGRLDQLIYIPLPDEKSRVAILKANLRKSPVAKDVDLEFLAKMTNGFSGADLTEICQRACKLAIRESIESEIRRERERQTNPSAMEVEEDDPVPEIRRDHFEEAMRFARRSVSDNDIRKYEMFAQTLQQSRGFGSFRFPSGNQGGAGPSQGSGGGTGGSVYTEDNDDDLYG

In the case of `COc1ccc(/C=N/Nc2nnc(-c3ccccc3)c(O)n2)cc1`, the IC50 [1] is reported as > 50 µM (not active) and the IC50 [2] is reported as > 50 µM (not active).
With `CC(C)Oc1ccc(NC(=O)Oc2ccccc2)cc1` the AC50 [3] was 129 µM (active).
For `Oc1ccc(/C=C/c2cc(O)cc(O)c2)cc1` [RESVERATROL], the EC50 [4] was > 300 µM (not active), the IC50 [5] was 2.24 µM (active) and the IC50 [6] was > 59.6 µM (not active). For the same compound, the EC50 [7] was 163 µM (active), the EC50 [8] was 6.97 µM (active) and the IC50 [9] was 26.2 µM (active). The EC50 [10] was > 20 µM (not active), the AC50 [11] was 4.02 µM (active) and the CC50 [12] was 26.3 µM (active).
For `O=C(O)c1ccc2c(c1)C1C=CCC1C(C(=O)O)N2` (stereo not given), the IC50 [13] was 2.51 µM (active), the IC50 [14] was > 100 µM (not active) and the IC50 [15] was > 100 µM (not active). The IC50 [16] was 2.42 µM (active), the IC50 [17] was 17.8 µM (active) and the IC50 [18] was 15.5 µM (active).
For `Cc1ccc(Nc2nc(-c3c(C)nc4ccccn34)cs2)cc1`, the EC50 [19] was < 0.1 µM (active), the EC50 [20] was 0.021 µM (active) and the EC50 [21] was 0.027 µM (active). The EC50 [22] was < 0.1 µM (active), the IC50 [23] was 0.0895 µM (active) and the EC50 [24] was 0.013 µM (active). The IC50 [25] was > 80 µM (inactive).
